# Article PMC5727045, “Anti-biofilm Properties of Bacterial Di-Rhamnolipids and Their Semi-Synthetic Amide Derivatives” (Frontiers in Microbiology, 2017)
# Entries after “also recorded” stand apart in the source; their conditions may differ.
# What was measured:
# P. aeruginosa DM50 [1] = assay: MIC, broth microdilution, planktonic cells; assay type: cell-based; settings: Pseudomonas aeruginosa; P. aeruginosa DM50, 24 h incubation
# Text: (§1) Test organisms for the antibacterial assays were obtained from the National Collection of Type Cultures (NCTC) and the American Type Culture Collection (ATCC). P. aeruginosa PAO1 NCTC 10332, S. aureus ATCC 25923 and S. aureus ATCC 43300 (MRSA) and S. marcescens ATCC 27117 were used in this study. One clinical isolate of P. aeruginosa DM50 with high ability to form biofilms and resistance to metronidazole, clindamycin and amoxicillin was also included ([Glisic et al., 2016]). Bacterial strains were grown in Luria Bertani (LB) broth at 37°C on a rotary shaker at 180 rpm.
# (§2) The minimum inhibitory concentration (MIC) of rhamnolipids and their derivatives were determined according to standard broth microdilution assays recommended by the National Committee for Clinical Laboratory Standards (M07-A8).
# (§3) Stock solutions of rhamnolipids and derivatives were prepared in DMSO (50 g L^-1, w/v). The highest concentration used was 500 mg L^-1. The inoculums were 10^5 colony forming units (cfu) mL^-1.
# P. aeruginosa PAO1 [2] = assay: MIC, broth microdilution, planktonic cells; assay type: cell-based; settings: Pseudomonas aeruginosa; P. aeruginosa PAO1, 24 h incubation
# Text: as §1, §2, §3
# S. aureus ATCC 25923 [3] = assay: MIC, broth microdilution, planktonic cells; assay type: cell-based; settings: Staphylococcus aureus, ATCC25923, 24 h, S. aureus ATCC 25923, 24 h incubation
# Text: as §1, §2, §3
# S. aureus MRSA [4] = assay: MIC, broth microdilution, planktonic cells; assay type: cell-based; settings: Staphylococcus aureus, 24 h, 24 h incubation
# Text: as §1, §2, §3
# S. marcescens ATCC 27117 [5] = assay: MIC, broth microdilution, planktonic cells; assay type: cell-based; settings: Serratia marcescens, ATCC27117; S. marcescens ATCC 27117, 24 h incubation
# Text: as §1, §2, §3
# P. aeruginosa PAO1 [6] = assay: Inhibition of biofilm formation, crystal violet; assay type: cell-based, Pseudomonas aeruginosa; settings: for Biofilm formation (%): P. aeruginosa PAO1, 50 μg mL^-1
# Text: as §1
# (§4) Biofilm quantification assays were performed in 96-well microtiter plates using a crystal violet (CV) method to stain adherent cells ([Merritt et al., 2005]). Overnight cultures of bacteria were diluted to 5 × 10^7 cfu mL^-1 in LB and 100 μL was added to the wells in the presence of test compounds or DMSO (0.1%, v/v). Biofilms formed for 24 h at 37°C for P. aeruginosa and S. aureus, or 30°C for S. marcescens were washed and adherent cells stained with CV 0.1% (v/v). BFIC50 (concentration of compound that inhibited biofilm formation by 50%) was determined for each compound.
# The effect of rhamnolipids on P. aeruginosa biofilm formation was examined additionally by introducing 3 h adhesion phase after inoculation with 5 × 10^7 cfu mL^-1 cells. Following adhesion, the supernatant was removed and, after two washing steps with phosphate buffered saline (PBS), test compounds or DMSO were applied and the biofilms were quantified after 24 h using CV. Each biofilm formation assay was performed in six wells and repeated at least three times.
# P. aeruginosa DM50 [7] = assay: Inhibition of biofilm formation, crystal violet; assay type: cell-based, Pseudomonas aeruginosa; settings: P. aeruginosa DM50, 50 μg mL^-1
# Text: as §1, §4
# S. aureus ATCC 25923 [8] = assay: Inhibition of biofilm formation, crystal violet; assay type: cell-based, Staphylococcus aureus; settings: S. aureus ATCC 25923, 50 μg mL^-1
# Text: as §1, §4
# S. aureus MRSA [9] = assay: Inhibition of biofilm formation, crystal violet; assay type: cell-based, Staphylococcus aureus
# Text: as §1, §4
# S. marcescens ATCC 27117 [10] = assay: Inhibition of biofilm formation, crystal violet; assay type: cell-based, Serratia marcescens; settings: S. marcescens ATCC 27117, 50 μg mL^-1
# Text: as §1, §4
# P. aeruginosa DM50 [11] = assay: Biofilm dispersion assay, crystal violet; assay type: cell-based, Pseudomonas aeruginosa; settings: P. aeruginosa DM50, 50 μg mL^-1
# Text: as §1
# (§5) An overnight culture of P. aeruginosa was diluted to 5 × 10^7 cfu mL^-1 in LB and 100 μL was added to the wells in 96-well microtiter plates and incubated for 24 h at 37°C. After removal of the supernatant and two washing steps with PBS adherent cells were treated with different concentrations of rhamnolipids or derivatives for additional 24 h and the biofilms were quantified using CV as described above. Biofilm dispersion assays were performed in six wells and repeated three times.
# P. aeruginosa PAO1 [12] = assay: Biofilm dispersion assay, crystal violet; assay type: cell-based, Pseudomonas aeruginosa; settings: for Biofilm biomass (%) remained after biofilm dispersion: P. aeruginosa PAO1, 50 μg mL^-1
# Text: as §1, §5
# S. aureus ATCC 25923 [13] = assay: Biofilm dispersion assay, crystal violet; assay type: cell-based, Staphylococcus aureus; settings: S. aureus ATCC 25923, 50 μg mL^-1
# S. aureus MRSA [14] = assay: Biofilm dispersion assay, crystal violet; assay type: cell-based, Staphylococcus aureus
# S. marcescens ATCC 27117 [15] = assay: Biofilm dispersion assay, crystal violet; assay type: cell-based, Serratia marcescens; settings: S. marcescens ATCC 27117, 50 μg mL^-1
# Text: as §1, §5
# [16] = system: MRC5 human lung fibroblasts; assay: Cytotoxicity assay, MTT; assay type: cell-based; settings: concentrations up to 100 μg mL^-1, MTT, 48 h
# Protocol: MRC5 human lung fibroblasts were obtained from the ATCC. Cells were maintained as monolayer cultures in RPMI-1640 supplemented with 100 mg L^-1 streptomycin, 100 U mL^-1 penicillin and 10% (v/v) FBS (all from Sigma, Munich, Germany). Cells were grown in a humidified atmosphere of 95% air and 5% CO2 at 37°C.
# Cytotoxicity on MRC5 cells was evaluated with 3-(4,5-dimethylthiazol-2-yl)-2,5-diphenyltetrazolium bromide (MTT). The assay was carried out after 48 h of cell incubation in the media containing test compounds at different concentrations and the viability was measured as described ([Mihajlovic et al., 2012]). The results are presented as the percentage of the control (untreated cells) that was arbitrarily set to 100%.
# P. aeruginosa PAO1-GFP = assay: Anti-adhesion assay, GFP fluorescence; assay type: cell-based, Pseudomonas aeruginosa; settings: 2 h
# Protocol: Anti-adhesion assay was performed as previously described ([Shetye et al., 2014]) with some modifications. An overnight culture of P. aeruginosa PAO1 containing pBBR2-GFP ([da Silva et al., 2014]) was subcultured (initial OD600 = 0.02) in M9+/LB (95:5) containing gentamycin (80 mg L^-1), tetracycline (20 mg L^-1), and chloramphenicol (50 mg L^-1) at 37°C in a rotary shaker (200 rpm). After reaching OD600 = 0.1, aliquots (200 μL) were transferred to the wells of black polystyrene microtiter plate with rhamnolipids, derivatives or DMSO (control). After incubation at 37°C for 2 h, bacterial cultures were discarded, and the fluorescence of adherent cells was measured after addition of fresh M9+/LB (95:5) medium using Tecan Infinite 200 Microplate reader (Tecan Group Ltd., Switzerland, lex = 500 nm, lem = 540 nm). Background signal (M9+/LB (95:5) was subtracted from all the samples. Assays were repeated three times; inhibition values are the averages of six replicate wells from one experiment.
# [17] = listed as Rha-TBDMS (Lysinibacillus sp. BV152.1)
# [18] = 50 μg mL^-1, listed as Rha-TBDMS (Lysinibacillus sp. BV152.1)
smiles,measurement,setting,value
"CCCCCCCC(CC(=O)O)OC(=O)CC(CCCCCCC)O[C@@H]1O[C@@H](C)[C@H](O)[C@@H](O)[C@H]1O[C@@H]1O[C@@H](C)[C@H](O)[C@@H](O)[C@H]1O (stereo partly drawn) [di-Rha, Rha-Rha-C10-C10]",MIC,P. aeruginosa DM50 [1],> 500 µg/mL
same,MIC,P. aeruginosa PAO1 [2],> 500 µg/mL
same,MIC,S. aureus ATCC 25923 [3],> 500 µg/mL
same,MIC,S. aureus MRSA [4],> 500 µg/mL
same,MIC,S. marcescens ATCC 27117 [5],> 500 µg/mL
same,Biofilm formation (%),P. aeruginosa PAO1 [6],50 ± 3%
same,effect on biofilm formation when bacteria were left to attach prior to treatment,"P. aeruginosa PAO1 [6]; P. aeruginosa PAO1, concentrations up to 50 μg mL^-1",stimulated biofilm formation
same,IC50,"P. aeruginosa PAO1 [6]; Pseudomonas aeruginosa, P. aeruginosa PAO1, 24 h, read-out: BFIC50 (concentration of compound that inhibited biofilm formation by 50%)",75 µg/mL
same,Biofilm formation (%),P. aeruginosa DM50 [7],109 ± 10%
same,Biofilm formation (%),S. aureus ATCC 25923 [8],37 ± 4%
same,Biofilm formation (%),S. aureus MRSA [9]; 50 μg mL^-1,44 ± 11%
same,Biofilm formation (%),S. marcescens ATCC 27117 [10],20 ± 5%
same,Biofilm biomass (%) remained after biofilm dispersion,P. aeruginosa DM50 [11],135 ± 10%
same,disruption of pre-formed biofilms,"P. aeruginosa PAO1 [12]; 24 h old P. aeruginosa biofilms, 100 μg mL^-1",up to 20%
same,Biofilm biomass (%) remained after biofilm dispersion,P. aeruginosa PAO1 [12],77 ± 3%
same,Biofilm biomass (%) remained after biofilm dispersion,S. aureus ATCC 25923 [13],80 ± 9%
same,Biofilm biomass (%) remained after biofilm dispersion,S. aureus MRSA [14]; 50 μg mL^-1,82 ± 7%
same,Biofilm biomass (%) remained after biofilm dispersion,S. marcescens ATCC 27117 [15],193 ± 8%
same,Viability of human lung fibroblasts (MRC5),[16],not affected; also recorded: not toxic
CCCCCCCC(CC(=O)O)OC(=O)CC(CCCCCCC)O[C@@H]1O[C@@H](C)[C@H](O[Si](C)(C)C(C)(C)C)[C@@H](O[Si](C)(C)C(C)(C)C)[C@H]1O[C@@H]1O[C@@H](C)[C@H](O[Si](C)(C)C(C)(C)C)[C@@H](O[Si](C)(C)C(C)(C)C)[C@H]1O[Si](C)(C)C(C)(C)C (some centres unmarked) [di-Rha-TBDMS (P. aeruginosa)],MIC,P. aeruginosa DM50 [1],> 500 µg/mL
same,MIC,P. aeruginosa PAO1 [2],> 500 µg/mL
same,MIC,S. aureus ATCC 25923 [3],> 500 µg/mL
same,MIC,S. aureus MRSA [4],> 500 µg/mL
same,MIC,S. marcescens ATCC 27117 [5],> 500 µg/mL
same,Biofilm formation (%),P. aeruginosa PAO1 [6],95 ± 7%
same,Biofilm formation (%),P. aeruginosa DM50 [7],73 ± 6%
same,Biofilm formation (%),S. aureus ATCC 25923 [8],88 ± 10%
same,Biofilm formation (%),S. aureus MRSA [9]; 50 μg mL^-1,69 ± 11%
same,Biofilm formation (%),S. marcescens ATCC 27117 [10],117 ± 4%
same,Biofilm biomass (%) remained after biofilm dispersion,P. aeruginosa DM50 [11],78 ± 10%
same,Biofilm biomass (%) remained after biofilm dispersion,P. aeruginosa PAO1 [12],76 ± 10%
same,Biofilm biomass (%) remained after biofilm dispersion,S. aureus ATCC 25923 [13],82 ± 3%
same,Biofilm biomass (%) remained after biofilm dispersion,S. aureus MRSA [14]; 50 μg mL^-1,120 ± 10%
same,Biofilm biomass (%) remained after biofilm dispersion,S. marcescens ATCC 27117 [15],155 ± 3%
same,anti-adhesion activity,P. aeruginosa PAO1-GFP,no significant anti-adhesion activity
same,Viability of human lung fibroblasts (MRC5),[16],not affected
CCCCCCCC(CC(=O)O)OC(=O)CC(CCCCCCC)O[C@@H]1O[C@@H](C)[C@H](O[Si](C)(C)C(C)(C)C)[C@@H](O[Si](C)(C)C(C)(C)C)[C@H]1O[C@@H]1O[C@@H](C)[C@H](O[Si](C)(C)C(C)(C)C)[C@@H](O[Si](C)(C)C(C)(C)C)[C@H]1O[Si](C)(C)C(C)(C)C (some centres unmarked),anti-biofilm formation activity,P. aeruginosa PAO1 [6]; P. aeruginosa PAO1,no anti-biofilm formation activity
same,Biofilm formation (%),P. aeruginosa PAO1 [6]; [17],115 ± 10%
same,Biofilm formation (%),P. aeruginosa DM50 [7]; [17],100 ± 8%
same,Biofilm formation (%),S. aureus ATCC 25923 [8]; [17],88 ± 12%
same,Biofilm formation (%),S. aureus MRSA [9]; [18],106 ± 4%
same,Biofilm formation (%),S. marcescens ATCC 27117 [10]; [17],85 ± 1%
same,Biofilm biomass (%) remained after biofilm dispersion,P. aeruginosa DM50 [11]; [17],65 ± 1%
same,Biofilm biomass (%) remained after biofilm dispersion,P. aeruginosa PAO1 [12]; [17],80 ± 6%
same,Biofilm biomass (%) remained after biofilm dispersion,S. aureus ATCC 25923 [13]; [17],110 ± 22%
same,Biofilm biomass (%) remained after biofilm dispersion,S. aureus MRSA [14]; [18],101 ± 14%
same,Biofilm biomass (%) remained after biofilm dispersion,S. marcescens ATCC 27117 [15]; [17],99 ± 8%
